# Test results taken from patent US10117858B2, “Pyridine and pyrazine derivative for the treatment of CF” (Novartis AG, priority 2010, dated 2018).
# Biological target: ΔF508-CFTR (Homo sapiens (Human), UniProt P13569, DEL508-508)
# Experiment: CFTR potentiator assays (membrane potential, IonWorks Quattro, Ussing chamber ion transport); patent does not say which gave the EC50
# Assay type: cell-based
# Details: Table 1, representative compounds; data measurements described above; read-out: EC50
# Source text: CFTR activity can be quantified by measuring the transmembrane potential. The means for measuring the transmembrane potential in a biological system can employ a number of methods including electrophysiological and optical fluorescence-based membrane potential assays.
# The optical membrane potential assay utilises a negatively charged potentiometric dye, such as the FLIPR membrane potential dye (FMP) (see Baxter D F, Kirk M, Garcia A F, Raimondi A, Holmqvist M H, Flint K K, Bojanic D, Distefano P S, Curtis R, Xie Y. ‘A novel membrane potential-sensitive fluorescent dye improves cell-based assays for ion channels.’ J Biomol Screen. 2002 February; 7(1):79-85) which when extracellular is bound to a quenching agent. Upon cellular depolarisation the negatively charged dye redistributes to the intracellular compartment, unbinding from the membrane impermeant quench agent, yielding an increase in fluorescence. This change in fluorescence is proportional to the change in transmembrane potential which can result from the activity of CFTR. The changes in fluorescence can be monitored in real time by an appropriately equipped fluorescence detector such as the FLIPR (fluorometric imaging plate reader) in 96 or 384-well microtitre plates.
# Chinese hamster ovary (CHO) cells stably expressing the ΔF508-CFTR channel were used for membrane potential experiments. Cells were maintained at 37° C. in 5% v/v CO2 at 100% humidity in Modified Eagles medium (MEM) supplemented with 8% v/v foetal calf serum, 100 µg/ml methotrexate and 100 U/ml penicillin/streptomycin. Cells were grown in 225 cm^2 tissue culture flasks. For membrane potential assays cells were seeded into 96 well plates at 40,000 cells per well, allowed to adhere and then maintained at 26° C. for 48 h to facilitate channel insertion.
# The membrane potential screening assay utilised a low chloride ion containing extracellular solution (˜5 mM) combined with a double addition protocol. The first addition was of buffer with or without test compound followed 5 minutes later by an addition of forskolin (1-20 μM)—this protocol favours maximum chloride efflux in response to ΔF508-CFTR activation. The ΔF508-CFTR mediated chloride ion efflux leads to a membrane depolarisation which is optically monitored by the FMP dye.
# Low chloride extracellular (mM): 120 Na-gluconate, 1.2 CaCl2, 3.3 KH2PO4, 0.8 K2HPO4, 1.2 MgCl2, 10.0 D-glucose, 20.0 HEPES, pH 7.4 with NaOH FMP dye: made up as per manufacturers' instructions in low chloride extracellular solution detailed above, at 10× final concentration, and stored as 1 mL aliquots at −20° C.
# CFTR activity can also be quantified electrophysiologically using the whole-cell configuration of the patch clamp technique (Hamill et al Pflugers Acrhive 1981). This assay directly measures the currents associated with chloride flow through CFTR channels whilst either maintaining or adjusting the transmembrane voltage. This assay can use either single glass micropipettes or parallel planar arrays to measure CFTR activity from native or recombinant cell systems. Currents measured using parallel planar arrays can be quantified using an appropriately equipped instrument such as the IonWorks Quattro (Molecular Devices) or the Qpatch (Sophion). The Quattro system can measure CFTR currents from either a single cell per recording well (HT configuration) or alternatively from a population of 64 cells per well (Population Patch Clamp PPC) (Finkel A, Wittel A, Yang N, Handran S, Hughes J, Costantin J. ‘Population patch clamp improves data consistency and success rates in the measurement of ionic currents.’ J Biomol Screen. 2006 August; 11(5):488-96).
# Chinese hamster ovary (CHO) cells stably expressing the ΔF508-CFTR channel were used for IonWorks Quattro experiments. […]
# ΔF508-CFTR, sequence (P13569 other isoform, or with tags, fused parts or gaps del F508-F508): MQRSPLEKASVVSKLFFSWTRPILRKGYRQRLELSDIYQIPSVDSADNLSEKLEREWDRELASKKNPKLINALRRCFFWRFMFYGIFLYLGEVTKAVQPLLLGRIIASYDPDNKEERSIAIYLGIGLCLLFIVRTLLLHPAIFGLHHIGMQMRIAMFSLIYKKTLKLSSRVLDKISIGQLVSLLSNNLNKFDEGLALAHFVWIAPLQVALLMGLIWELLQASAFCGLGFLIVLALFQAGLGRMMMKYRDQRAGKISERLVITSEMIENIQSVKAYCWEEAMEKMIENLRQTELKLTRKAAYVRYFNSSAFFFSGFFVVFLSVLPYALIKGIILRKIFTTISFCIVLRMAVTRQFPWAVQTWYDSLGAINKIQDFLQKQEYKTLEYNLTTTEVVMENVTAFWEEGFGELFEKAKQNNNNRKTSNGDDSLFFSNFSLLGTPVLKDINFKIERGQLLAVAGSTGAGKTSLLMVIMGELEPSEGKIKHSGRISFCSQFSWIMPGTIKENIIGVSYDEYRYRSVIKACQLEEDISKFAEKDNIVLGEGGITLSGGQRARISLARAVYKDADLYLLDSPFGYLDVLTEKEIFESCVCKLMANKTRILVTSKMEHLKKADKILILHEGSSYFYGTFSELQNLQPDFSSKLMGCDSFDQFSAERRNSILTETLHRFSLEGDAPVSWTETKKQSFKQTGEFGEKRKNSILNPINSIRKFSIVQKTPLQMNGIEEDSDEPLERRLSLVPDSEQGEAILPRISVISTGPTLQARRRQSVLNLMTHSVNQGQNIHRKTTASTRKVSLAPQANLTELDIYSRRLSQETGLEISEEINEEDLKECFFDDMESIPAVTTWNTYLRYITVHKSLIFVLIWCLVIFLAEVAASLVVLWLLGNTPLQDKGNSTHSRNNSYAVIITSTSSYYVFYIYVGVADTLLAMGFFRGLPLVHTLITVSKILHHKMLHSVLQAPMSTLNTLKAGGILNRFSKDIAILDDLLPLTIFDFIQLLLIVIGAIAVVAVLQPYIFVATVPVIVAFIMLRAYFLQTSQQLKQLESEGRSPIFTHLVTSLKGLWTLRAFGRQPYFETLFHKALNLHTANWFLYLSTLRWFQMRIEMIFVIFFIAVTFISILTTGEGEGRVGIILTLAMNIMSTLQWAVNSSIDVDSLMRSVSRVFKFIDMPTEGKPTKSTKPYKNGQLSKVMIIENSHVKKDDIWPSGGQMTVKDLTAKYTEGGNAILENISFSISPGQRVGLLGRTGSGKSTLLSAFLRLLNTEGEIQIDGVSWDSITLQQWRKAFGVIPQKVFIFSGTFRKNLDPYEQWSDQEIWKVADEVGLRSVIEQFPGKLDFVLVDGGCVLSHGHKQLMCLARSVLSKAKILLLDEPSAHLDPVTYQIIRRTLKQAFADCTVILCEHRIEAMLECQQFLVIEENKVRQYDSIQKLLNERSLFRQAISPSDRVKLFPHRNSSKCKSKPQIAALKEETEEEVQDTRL
row,EC50 [µM],SMILES
1,0.09,"CC(O)(CNC(=O)c1nc(-c2ccc(Cl)cc2Cl)c(C(F)(F)F)cc1N)C(F)(F)F (single isomer, unassigned) [Example 9, 3-Amino-6-(2,4-dichloro-phenyl)-5-trifluoromethyl-pyridine-2-carboxylic acid (3,3,3-trifluoro-2-hydroxy-2-methyl-propyl)-amide]"
2,0.112,"CC(O)(CNC(=O)c1nc(-c2ccc(Cl)cc2Cl)c(C(F)(F)F)cc1N)C(F)(F)F (single isomer, unassigned) [Example 10, 3-Amino-6-(2,4-dichloro-phenyl)-5-trifluoromethyl-pyridine-2-carboxylic acid (3,3,3-trifluoro-2-hydroxy-2-methyl-propyl)-amide]"
3,0.426,"COc1nc(C(=O)NC[C@@](C)(O)C(F)(F)F)c(N)cc1C(F)(F)F [Example 6, 3-Amino-6-methoxy-5-trifluoromethyl-pyridine-2-carboxylic acid ((R)-3,3,3-trifluoro-2-hydroxy-2-methyl-propyl)-amide]"
4,0.05,"COc1nc(C(=O)NC[C@](C)(O)C(F)(F)F)c(N)cc1C(F)(F)F [Example 5, 3-Amino-6-methoxy-5-trifluoromethyl-pyridine-2-carboxylic acid ((S)-3,3,3-trifluoro-2-hydroxy-2-methyl-propyl)-amide]"

# Same assay, conditions: data measurements described above; read-out: CFTR EC50
row,EC50 [µM],SMILES
1,> 5,"Nc1cc(C(F)(F)F)c(-c2ccc3c(c2)CCNC3=O)nc1C(=O)NCC(=O)c1ccc(F)cc1 [3-amino-N-(2-(4-fluorophenyl)-2-oxoethyl)-6-(1-oxo-1,2,3,4-tetrahydroisoquinolin-6-yl)-5-(trifluoromethyl)picolinamide]"
2,> 5,CN1CCN[C@H](CNC(=O)c2nc(Br)c(C(F)(F)F)nc2N)C1 [(R)-3-amino-6-bromo-N-((4-methylpiperazin-2-yl)methyl)-5-(trifluoromethyl)pyrazine-2-carboxamide]
3,> 5,Cn1ccc(CNC(=O)c2nc(Br)c(C(F)(F)F)nc2N)n1 [3-amino-6-bromo-N-((1-methyl-1H-pyrazol-3-yl)methyl)-5-(trifluoromethyl)pyrazine-2-carboxamide]
4,> 5,Cc1cc(C(N)=O)ccc1-c1nc(C(=O)NCC(=O)c2ccc(F)cc2)c(N)cc1C(F)(F)F [3-amino-6-(4-carbamoyl-2-methylphenyl)-N-(2-(4-fluorophenyl)-2-oxoethyl)-5-(trifluoromethyl)picolinamide]
5,> 5,"CC(O)(CNC(=O)c1nc(O)c(C(F)(F)F)cc1N)C(F)(F)F (centres unmarked) [3-amino-6-hydroxy-N-(3,3,3-trifluoro-2-hydroxy-2-methylpropyl)-5-(trifluoromethyl)picolinamide]"
6,> 5,CN1CCN(C(=O)c2nc(Br)c(C(F)(F)F)nc2N)CC1 [(3-amino-6-bromo-5-(trifluoromethyl)pyrazin-2-yl)(4-methylpiperazin-1-yl)methanone]
7,> 5,"CNc1cc(C(F)(F)F)c(Br)nc1C(=O)NCC(C)(O)C(F)(F)F (centres unmarked) [6-bromo-3-(methylamino)-N-(3,3,3-trifluoro-2-hydroxy-2-methylpropyl)-5-(trifluoromethyl)picolinamide]"
8,> 5,Nc1cc(C(F)(F)F)c(Br)nc1C(=O)NCC(=O)O [2-(3-amino-6-bromo-5-(trifluoromethyl)picolinamido)acetic acid]
9,> 5,CN(Cc1ccccc1)C(=O)c1nc(Br)c(C(F)(F)F)nc1N [3-amino-N-benzyl-6-bromo-N-methyl-5-(trifluoromethyl)pyrazine-2-carboxamide]
10,> 5,CCN1CCC[C@H]1CNC(=O)c1nc(Br)c(C(F)(F)F)nc1N [(S)-3-amino-6-bromo-N-((1-ethylpyrrolidin-2-yl)methyl)-5-(trifluoromethyl)pyrazine-2-carboxamide]
11,> 5,"Cc1ccc(-c2nc(C(=O)NCC(=O)c3ccc(F)cc3)c(N)cc2C(F)(F)F)cc1C [3-amino-6-(3,4-dimethylphenyl)-N-(2-(4-fluorophenyl)-2-oxoethyl)-5-(trifluoromethyl)picolinamide]"
12,> 5,Cn1nccc1CNC(=O)c1nc(Br)c(C(F)(F)F)nc1N [3-amino-6-bromo-N-((1-methyl-1H-pyrazol-5-yl)methyl)-5-(trifluoromethyl)pyrazine-2-carboxamide]
13,> 5,Cn1cnc(CNC(=O)c2nc(Br)c(C(F)(F)F)nc2N)c1 [3-amino-6-bromo-N-((1-methyl-1H-imidazol-4-yl)methyl)-5-(trifluoromethyl)pyrazine-2-carboxamide]
14,> 5,CC(C)CN(C)C(=O)c1nc(Br)c(C(F)(F)F)nc1N [3-amino-6-bromo-N-isobutyl-N-methyl-5-(trifluoromethyl)pyrazine-2-carboxamide]
15,> 5,"Nc1nc(C(F)(F)F)c(Br)nc1C(=O)NCc1cn2ccccc2n1 [3-amino-6-bromo-N-(imidazo[1,2-a]pyridin-2-ylmethyl)-5-(trifluoromethyl)pyrazine-2-carboxamide]"
16,> 5,"Cc1ccc(C)n1-c1cc(C(F)(F)F)c(On2nnc3cccnc32)nc1C(=O)NCC(C)(O)C(F)(F)F (centres unmarked) [6-((3H-[1,2,3]triazolo[4,5-b]pyridin-3-yl)oxy)-3-(2,5-dimethyl-1H-pyrrol-1-yl)-N-(3,3,3-trifluoro-2-hydroxy-2-methylpropyl)-5-(trifluoromethyl)picolinamide]"
17,> 5,CN(C)CCCOc1ccc(-c2nc(C(=O)NCC(=O)c3ccc(F)cc3)c(N)nc2C(F)(F)F)cn1 [3-amino-6-(6-(3-(dimethylamino)propoxy)pyridin-3-yl)-N-(2-(4-fluorophenyl)-2-oxoethyl)-5-(trifluoromethyl)pyrazine-2-carboxamide]
18,> 5,CN1CCN(C(=O)c2nc(Br)c(C(F)(F)F)nc2N)CC1c1ccccc1 (centres unmarked) [(3-amino-6-bromo-5-(trifluoromethyl)pyrazin-2-yl)(4-methyl-3-phenylpiperazin-1-yl)methanone]
19,> 5,Cn1cncc1CNC(=O)c1nc(Br)c(C(F)(F)F)nc1N [3-amino-6-bromo-N-((1-methyl-1H-imidazol-5-yl)methyl)-5-(trifluoromethyl)pyrazine-2-carboxamide]
20,> 5,"CN(C)S(=O)(=O)c1cccc(-c2nc(C(=O)NCC(=O)c3ccc(F)cc3)c(N)cc2C(F)(F)F)c1 [3-amino-6-(3-(N, N-dimethylsulfamoyl)phenyl)-N-(2-(4-fluorophenyl)-2-oxoethyl)-5-(trifluoromethyl)picolinamide]"
21,> 5,Cn1ccnc1CNC(=O)c1nc(Br)c(C(F)(F)F)nc1N [3-amino-6-bromo-N-((1-methyl-1H-imidazol-2-yl)methyl)-5-(trifluoromethyl)pyrazine-2-carboxamide]
22,> 5,Nc1nc(C(F)(F)F)c(Br)nc1C(=O)NCCc1cccnc1 [3-amino-6-bromo-N-(2-(pyridin-3-yl)ethyl)-5-(trifluoromethyl)pyrazine-2-carboxamide]
23,> 5,"Nc1nc(C(F)(F)F)c(Br)nc1C(=O)NCc1ncn2ccccc12 [3-amino-6-bromo-N-(imidazo[1,5-a]pyridin-1-ylmethyl)-5-(trifluoromethyl)pyrazine-2-carboxamide]"
24,> 5,Nc1nc(C(F)(F)F)c(Br)nc1C(=O)NCCc1ccncc1 [3-amino-6-bromo-N-(2-(pyridin-4-yl)ethyl)-5-(trifluoromethyl)pyrazine-2-carboxamide]
25,> 5,Cn1ccc2ccc(-c3nc(C(=O)NCC(=O)c4ccc(F)cc4)c(N)cc3C(F)(F)F)cc21 [3-amino-N-(2-(4-fluorophenyl)-2-oxoethyl)-6-(1-methyl-1H-indol-6-yl)-5-(trifluoromethyl)picolinamide]
